From the NIST ThermoML archive (doi:10.1016/j.tca.2014.05.033)
Values joined by “and” are separate entries in the source; they are usually repeats but may differ in a detail not shown here. Equal entries are not always repeated. ± gives the expanded uncertainty stated by the source.

What was measured:
[1] = Transpiration method
[2] = molar enthalpy of vaporization or sublimation; settings: 298.15 K, DSC

c1ccc(-c2ccccc2-c2ccccc2)cc1 [o-terphenyl]
vapor or sublimation pressure ([1]; 343.5 K, Liquid): 0.00166 ± 9e-05 kPa
vapor or sublimation pressure ([1]; 345.5 K, Liquid): 0.00195 ± 0.0001 kPa
vapor or sublimation pressure ([1]; 346.4 K, Liquid): 0.0021 ± 0.00011 kPa
vapor or sublimation pressure ([1]; 348.4 K, Liquid): 0.0025 ± 0.00013 kPa
vapor or sublimation pressure ([1]; 349.5 K, Liquid): 0.0027 ± 0.00014 kPa
vapor or sublimation pressure ([1]; 351.5 K, Liquid): 0.00315 ± 0.00016 kPa
vapor or sublimation pressure ([1]; 352.5 K, Liquid): 0.00339 ± 0.00018 kPa
vapor or sublimation pressure ([1]; 355.4 K, Liquid): 0.00427 ± 0.00022 kPa
vapor or sublimation pressure ([1]; 358.4 K, Liquid): 0.00528 ± 0.00028 kPa
vapor or sublimation pressure ([1]; 360.4 K, Liquid): 0.0062 ± 0.00032 kPa
vapor or sublimation pressure ([1]; 361.4 K, Liquid): 0.00658 ± 0.00034 kPa
vapor or sublimation pressure ([1]; 361.5 K, Liquid): 0.00664 ± 0.00035 kPa
vapor or sublimation pressure ([1]; 363.2 K, Liquid): 0.00752 ± 0.00039 kPa
vapor or sublimation pressure ([1]; 365.4 K, Liquid): 0.00888 ± 0.00046 kPa
vapor or sublimation pressure ([1]; 366.4 K, Liquid): 0.00943 ± 0.00049 kPa
vapor or sublimation pressure ([1]; 368.4 K, Liquid): 0.01095 ± 0.00057 kPa
vapor or sublimation pressure ([1]; 369.4 K, Liquid): 0.01187 ± 0.00062 kPa
vapor or sublimation pressure ([1]; 371.4 K, Liquid): 0.01363 ± 0.0007 kPa
vapor or sublimation pressure ([1]; 373.3 K, Liquid): 0.01527 ± 0.00079 kPa
vapor or sublimation pressure ([1]; 374.4 K, Liquid): 0.01677 ± 0.00087 kPa
vapor or sublimation pressure ([1]; 376.3 K, Liquid): 0.01869 ± 0.00097 kPa
vapor or sublimation pressure ([1]; 377.4 K, Liquid): 0.02037 ± 0.0011 kPa
molar enthalpy ([2]; Crystal): 25.3 ± 0.741 kcal/mol

c1ccc2c(c1)ccc1ccccc12 [phenanthrene]
vapor or sublimation pressure ([1]; 306.2 K, Crystal 2): 5e-05 ± 1e-05 kPa
vapor or sublimation pressure ([1]; 309.4 K, Crystal 2): 7e-05 ± 1e-05 kPa
vapor or sublimation pressure ([1]; 313.2 K, Crystal 2): 0.00012 ± 1e-05 kPa
vapor or sublimation pressure ([1]; 316.3 K, Crystal 2): 0.00016 ± 1e-05 kPa
vapor or sublimation pressure ([1]; 319.3 K, Crystal 2): 0.00021 ± 1e-05 kPa
vapor or sublimation pressure ([1]; 322.3 K, Crystal 2): 0.00031 ± 2e-05 kPa
vapor or sublimation pressure ([1]; 325.2 K, Crystal 2): 0.00043 ± 2e-05 kPa
vapor or sublimation pressure ([1]; 328.4 K, Crystal 2): 0.00055 ± 3e-05 kPa
vapor or sublimation pressure ([1]; 329.2 K, Crystal 2): 0.00063 ± 4e-05 kPa
vapor or sublimation pressure ([1]; 330.7 K, Crystal 2): 0.00073 ± 4e-05 kPa
vapor or sublimation pressure ([1]; 334.2 K, Crystal 2): 0.00101 ± 5e-05 kPa
vapor or sublimation pressure ([1]; 337.2 K, Crystal 2): 0.00135 ± 7e-05 kPa
vapor or sublimation pressure ([1]; 340.3 K, Crystal 2): 0.00178 ± 9e-05 kPa
vapor or sublimation pressure ([1]; 343.4 K, Crystal 2): 0.00229 ± 0.00012 kPa
vapor or sublimation pressure ([1]; 346.3 K, Crystal 2): 0.00306 ± 0.00016 kPa
vapor or sublimation pressure ([1]; 349.4 K, Crystal 1): 0.00403 ± 0.00022 kPa
vapor or sublimation pressure ([1]; 352.4 K, Crystal 1): 0.00545 ± 0.00029 kPa
vapor or sublimation pressure ([1]; 355.5 K, Crystal 1): 0.00705 ± 0.00037 kPa
vapor or sublimation pressure ([1]; 356.8 K, Crystal 1): 0.0076 ± 0.0004 kPa
vapor or sublimation pressure ([1]; 358.6 K, Crystal 1): 0.00914 ± 0.00048 kPa
vapor or sublimation pressure ([1]; 359.2 K, Crystal 1): 0.00907 ± 0.00046 kPa
vapor or sublimation pressure ([1]; 362.3 K, Crystal 1): 0.01171 ± 0.00062 kPa
vapor or sublimation pressure ([1]; 365.3 K, Crystal 1): 0.01534 ± 0.00082 kPa
vapor or sublimation pressure ([1]; 368.3 K, Crystal 1): 0.01988 ± 0.001 kPa
vapor or sublimation pressure ([1]; 370.4 K, Crystal 1): 0.02298 ± 0.0012 kPa
molar enthalpy ([2]; Crystal 2): 22.1 ± 0.717 kcal/mol

c1ccc(-c2cccc3ccccc23)cc1 [1-phenylnaphthalene]
vapor or sublimation pressure ([1]; 318.5 K, Liquid): 0.00026 ± 2e-05 kPa
vapor or sublimation pressure ([1]; 323.5 K, Liquid): 0.00038 ± 2e-05 kPa
vapor or sublimation pressure ([1]; 328.3 K, Liquid): 0.00062 ± 3e-05 kPa
vapor or sublimation pressure ([1]; 328.4 K, Liquid): 0.0006 ± 3e-05 kPa
vapor or sublimation pressure ([1]; 333.4 K, Liquid): 0.00092 ± 5e-05 kPa
vapor or sublimation pressure ([1]; 338 K, Liquid): 0.00136 ± 7e-05 kPa
vapor or sublimation pressure ([1]; 343.6 K, Liquid): 0.00209 ± 0.00011 kPa and 0.0021 ± 0.00011 kPa
vapor or sublimation pressure ([1]; 351 K, Liquid): 0.00376 ± 0.0002 kPa
vapor or sublimation pressure ([1]; 353.1 K, Liquid): 0.00462 ± 0.00024 kPa
vapor or sublimation pressure ([1]; 358.3 K, Liquid): 0.00644 ± 0.00034 kPa
vapor or sublimation pressure ([1]; 358.5 K, Liquid): 0.00687 ± 0.00036 kPa
vapor or sublimation pressure ([1]; 363 K, Liquid): 0.00953 ± 0.0005 kPa
vapor or sublimation pressure ([1]; 368.3 K, Liquid): 0.01352 ± 0.0007 kPa
vapor or sublimation pressure ([1]; 371 K, Liquid): 0.01665 ± 0.00087 kPa
molar enthalpy ([2]; Liquid): 19.8 ± 0.621 kcal/mol
